Tests used:
[1] = MTT cytotoxicity in uninduced retinoic acid‐differentiated SH‐SY5Y cells; format: cell-based; conditions: human
Procedure: (§1) Licochalcone A and five derivative LM compounds were tested (Figure 1a). All six compounds were soluble up to 100 μM in a cell culture medium (Figure S1a). Based on molecular weight (MW), hydrogen bond donors (HBD), hydrogen bond acceptors (HBA), and calculated octanol/water partition coefficient (cLogP), all six compounds meet Lipinski's criteria in predicting oral bioavailability (Lipinski, Lombardo, Dominy, & Feeney, 1997) (Figure S1b). […] To choose the optimal treatment dose used for the best efficacy of the candidate compounds, a specific type of biphasic dose response of a compound called hormesis should take into consideration. Evidence has shown that a wide range of pharmaceutical products display a hermetic dose‐response feature, characterized by a low‐dose stimulation and a high‐dose inhibition (Calabrese et al., 2018; Concetta Scuto et al., 2019; Pilipenko et al., 2019). Therefore, we tested the compounds at a range of doses to find the optimal dose for the best therapeutic effect and the least cytotoxicity. Firstly, MTT assay was performed using uninduced ∆K280 TauRD‐DsRed 293 and retinoic acid‐differentiated SH‐SY5Y cells following treatment with the test compounds (0.1–10 μM) for 3 (for 293 cells) or 7 (for SH‐SY5Ycells) days. […] Congo red is an amyloidogenic dye known to reduce Aβ neurotoxicity (Lorenzo & Yankner, 1994).
(§2) Licochalcone A was purchased from Sigma-Aldrich, St. Louis, MO, USA. In-house LM compounds were synthesized and characterized by NMR spectrum as described (Lee et al., 2012, 2015, 2018). Tet-On ∆K280 TauRD-DsRed 293 and SH-SY5Y cells (Chang et al., 2016) were cultured in Dulbecco’s modified Eagles medium (DMEM) (293) or DMEM-F12 (SH-SY5Y) containing 10% fetal bovine serum (Invitrogen, Carlsbad, CA, USA), 5 μg/ml of blasticidin, and 100 μg/ml of hygromycin (InvivoGen, San Diego, CA, USA). Compound cytotoxicity was assessed by colorimetric assay for measuring cell metabolic activity. Briefly, 5 × 10^4 cells were plated (48-well plates), grown for 20 h, and treated with the test compounds ([…]). […], 20 µl of 3-(4,5-dimethylthiazol-2-yl)-2,5-diphenyltetrazolium bromide (MTT, 5 mg/ml in PBS; Sigma-Aldrich) was added to the cells and incubated at 37°C for 3 h. Then 200 µl of lysis buffer (10% Triton X-100, 0.1 N HCl, 18% isopropanol) was added and the absorbance of the insoluble product at OD 570 nm was measured by a microplate reader (FLx800 fluorescence microplate reader, Bio-Tek, Winooski, VT, USA). The half-maximal inhibitory concentration (IC50) was calculated using the interpolation method.
(§3) Figure S1. Test compounds. (a) Solubility (in cell culture medium) of test compounds. (b) Molecular weight (MW), hydrogen bond donor (HBD), hydrogen bond acceptor (HBA), calculated octanol-water partition coefficient (cLogP), polar surface area (PSA), and predicted blood-brain barrier (BBB) score of test compounds. (c) Cytotoxicity of test compounds against ∆K280 TauRD-DsRed 293 and SH-SY5Y cells using the MTT assay. Uninduced 293 cells were plated on day 1 and treated with 0.1–10 μM test compounds on day 2. Cell viability was measured on day 5 (n = 3). In addition, uninduced SH-SY5Y cells were seeded with all trans retinoic acid (RA; 10 µM) on day 1 and treated with 0.1–10 μM test compounds on day 2. Cell viability was measured on day 9 (n = 3). To normalize, the relative viability in compound untreated cells was set at 100%. IC50 values are listed.

[2] = MTT cytotoxicity in uninduced ∆K280 TauRD‐DsRed 293 cells; format: cell-based; conditions: human
Procedure: as §1, §2, §3

[3] = Cytotoxicity by survived cell number in 293 cells expressing ∆K280 TauRD‐DsRed; format: cell-based; conditions: human; 293 cells expressing ∆K280 TauRD‐DsRed for 3 days
Excerpt: In ∆K280 TauRD‐DsRed 293 cells, a proaggregant (ΔK280) Tau repeat domain (TauRD) containing residues 244–372 of the full‐length 4R2N Tau441 was fused in‐frame with DsRed fluorophore. Compared to the wild‐type TauRD, the poorly folded ΔK280 TauRD formed aggregates, which adversely affected the folding of fused DsRed and thus decreased DsRed fluorescence, as also evidenced by increase in thioflavin S fluorescence emission (Chang et al., 2017). Thioflavin S is a reporter dye for studies of Tau toxicity and pharmacologic prevention in cell model of tauopathy (Pickhardt et al., 2017). It binds to amyloid fibrils but not monomers and gives a distinct increase in fluorescence emission. Inhibition of Tau aggregation may improve DsRed misfolding, leading to increased fluorescence in ΔK280 TauRD‐DsRed‐expressing cells. Utilizing the established Tet‐on ΔK280 TauRD‐DsRed 293 cells (Chang et al., 2016), licochalcone A and LM compounds were tested for effects of reducing Tau misfolding and anti‐oxidation (Figure S2a). Congo red was included for comparison. […] In the following experiments, DsRed fluorescence was measured in wells containing at least 80% viable cells. […] Due to the features of their effectiveness and less cytotoxicity, licochalcone A (1 μM) and LM‐031 (1 μM) were chosen as the candidate compounds for the following experiments. […] Representative DsRed and thioflavin S fluorescent images of ∆K280 TauRD‐DsRed‐expressing cells untreated or treated with congo red (10 µM), licochalcone A (1 µM), or LM‐031 (1 µM) are shown in Figure S2d.
DsRed fluorescence of proaggregant ∆K280 TauRD-DsRed 293 cells was evaluated to reflect Tau aggregation. On day 1, cells were seeded on a 96-well plate in a density of 0.8 × 10^4 cells/well. […] On the fifth day, the cells were stained with Hoechst 33342 (0.1 µg/ml; Sigma-Aldrich) for 30 min to identify total cell number; DsRed fluorescence images (543 nm excitation and 593 nm emission) were automatically captured by using the ImageXpressMICRO high-content imaging system (Molecular Devices, Sunnyvale, CA, USA) and analyzed using MetaXpress image acquisition and analysis software (Molecular Devices). In addition, the cells were fixed with paraformaldehyde (4% in PBS) for 15 minutes, permeabilized with methanol (80%) for 6 minutes at -20°C, incubated with thioflavin S (0.02%; Sigma-Aldrich) and 4’,6-diamidino-2-phenylindole (DAPI) (0.1 μg/ml; Sigma-Aldrich) for 5 minutes, and washed in ethanol (50%). Thioflavin S images ([…]) were captured and analyzed as described. In general, 2 × 10^4 cells in each biological replicate were analyzed.
Figure S2. ΔK280 TauRD-DsRed 293 cells. (a) Experimental flow chart. Cells were plated on day 1. On day 2, the cells were treated with congo red or test compounds for 8 h; addition of doxycycline (Dox; 1 µg/ml) followed. DsRed/thioﬂavin S fluorescence, ROS, and caspase 3 activity were assessed on day 5. (b) Cytotoxicity of the test compounds against 293 cells expressing ∆K280 TauRD-DsRed for 3 days using the survived cell number (n = 3). IC50 values are listed. (c) Dose response curves of LM-031 based on DsRed fluorescence measurement. (d) Fluorescent images of ΔK280 TauRD-DsRed 293 cells untreated or treated with congo red (10 µM), licochalcone A (1 µM), or LM-031 (1 µM). Nuclei were counterstained with Hoechst 33342 (blue), and merged DsRed and Hoechst 33342 signals were shown. In addition, tau aggregation was monitored by staining with thioﬂavin S (green).

Row | Compound | IC50 at 7 days [1] [µM] | IC50 at 3 days [2] [µM] | IC50 at 3 days [3] [µM] | transport across PAMPA membrane (integrity marker)
1 | COc1ccc(O)c(/C=C/C(=O)c2ccccc2)c1 [LM‐006] | 4.7 | 6.4 | 5.3 | 
2 | Cc1ccc(/C=C/C(=O)c2c(O)c3ccccc3oc2=O)cc1 [LM‐016] | 6 | 9.3 | 9.4 | 
3 | COc1cccc(/C=C/C(=O)c2ccc(O)cc2)c1O [LM‐026] | 5.4 | 7.7 | 8.5 | 
4 | Lucifer yellow |  |  |  | undetectable
